Laboratory results reported in PubChem BioAssay AID723 (NMMLSC, 2007).
The source made the active and inactive calls. How the calls were made is not given here.

Biological target: N-formyl peptide receptor 2 (Homo sapiens) (UniProt P25090)
Experiment: FPRL1 fluorescent ligand binding inhibitors, dose response, selectivity assay for FPR1 ligand SAR project, cell-based, flow cytometry, Ki from IC50 (AID 723)
Conditions: FPRL1-expressing cells, fluorescent ligand binding competition; for Ki: measured here: Ki from IC50

Chain of N-formyl peptide receptor 2 (Homo sapiens) (P25090 whole entry, looked up): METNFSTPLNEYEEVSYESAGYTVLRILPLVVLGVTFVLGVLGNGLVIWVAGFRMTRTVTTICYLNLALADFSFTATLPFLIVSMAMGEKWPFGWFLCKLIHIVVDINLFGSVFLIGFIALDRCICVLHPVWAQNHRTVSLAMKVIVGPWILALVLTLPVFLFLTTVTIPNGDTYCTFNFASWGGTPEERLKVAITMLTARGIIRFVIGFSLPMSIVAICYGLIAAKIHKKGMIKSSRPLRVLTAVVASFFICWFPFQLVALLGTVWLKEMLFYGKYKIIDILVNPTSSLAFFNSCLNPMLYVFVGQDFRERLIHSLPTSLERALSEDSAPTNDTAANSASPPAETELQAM

SMILES | IC50 | Ki
COc1cc(C2C(C(C)=O)=C(O)C(=O)N2c2ccc(Br)cc2)ccc1O (stereo not drawn) | > 66.7 µM (inactive) | > 40.3 µM
Cc1ccc(/C(O)=C2\C(=O)C(=O)N(Cc3cccnc3)C2c2ccc(Br)cc2)cc1 (stereo not drawn) | > 66.7 µM (inactive) | > 40.3 µM
COc1ccc(-c2c(C(F)(F)F)oc3cc(OC(=O)c4cccnc4)ccc3c2=O)cc1OC | – | > 40.3 µM
COc1ccc(C2C(C(=O)c3cccs3)=C(O)C(=O)N2CCN2CCOCC2)c(OC)c1 (stereo not drawn) | > 66.7 µM (inactive) | > 40.3 µM
COc1ccc(C2/C(=C(\O)c3ccc(C)cc3)C(=O)C(=O)N2Cc2cccnc2)c(OC)c1 (stereo not drawn) | > 66.7 µM (inactive) | > 40.3 µM
COc1ccc(C2C(C(=O)c3cccs3)=C(O)C(=O)N2CCCn2ccnc2)cc1 (stereo not drawn) | > 66.7 µM (inactive) | > 40.3 µM
COc1ccc(/C(O)=C2/C(=O)C(=O)NC2c2ccc(OC)cc2OC)cc1 (stereo not drawn) | > 66.7 µM (inactive) | > 40.3 µM
Cc1nc2c(-c3ccc(Cl)cc3)c(C(F)(F)F)[nH]n2c(=O)c1Cc1ccccc1 | – | > 40.3 µM
COc1ccc(C2C(C(=O)c3ccco3)=C(O)C(=O)N2CCCN2CCOCC2)cc1OC (stereo not drawn) | > 66.7 µM (inactive) | > 40.3 µM
COc1ccc(-c2c(C(F)(F)F)oc3c(CN4CCOCC4)c(O)ccc3c2=O)cc1OC | – | > 40.3 µM
O=C(Oc1ccc2c(=O)c(Oc3ccccc3Br)c(C(F)(F)F)oc2c1)c1cccs1 | – | > 40.3 µM
O=C(Oc1ccc2c(=O)c(-c3ccccc3Cl)c(C(F)(F)F)oc2c1)c1cccs1 | – | > 40.3 µM
CCc1cc2c(=O)c(-c3nc4ccccc4n3C)c(C)oc2cc1OC(C)=O | – | > 40.3 µM
CCCCCCOc1cccc(N2C(=O)C(=O)/C(=C(\O)c3ccccc3)C2c2cccc(F)c2)c1 (stereo not drawn) | > 66.7 µM (inactive) | > 40.3 µM
COc1ccc(/C(O)=C2/C(=O)C(=O)N(CCc3c[nH]c4ccccc34)C2c2ccc(C(C)C)cc2)cc1 (stereo not drawn) | > 66.7 µM (inactive) | > 40.3 µM
Cc1cccc(C2CC(=O)NC3=C2C(=O)CC(c2cccs2)C3)c1 (stereo not drawn) | – | > 40.3 µM
COc1ccccc1-c1c(C(F)(F)F)oc2cc(OC(=O)c3ccco3)ccc2c1=O | – | > 40.3 µM

SMILES | IC50 | Ki
COc1ccc(-c2c(C(F)(F)F)oc3cc(OC(=O)c4ccco4)ccc3c2=O)cc1OC | – | > 40.3 µM
CC(C)C(=O)N(Cc1ccco1)S(=O)(=O)c1cccc2cccnc12 | – | > 40.3 µM
O=C(C1=C(O)C(=O)N(CCCn2ccnc2)C1c1cccnc1)c1cc2ccccc2o1 (stereo not drawn) | > 66.7 µM (inactive) | > 40.3 µM
COc1ccc(OC)c(C2/C(=C(\O)c3ccc(C)cc3)C(=O)C(=O)N2CCC(=O)O)c1 (stereo not drawn) | > 66.7 µM (inactive) | > 40.3 µM
COc1cccc(/C=C2/C(=O)NN(c3ccc(C)cc3)C2=O)c1 | – | > 40.3 µM
COc1cccc(-c2ccnc3[nH]n(-c4ccccc4)c(=O)c23)c1 | – | > 40.3 µM
CCCC(=O)N(Cc1ccco1)S(=O)(=O)c1cccc2cccnc12 | – | > 40.3 µM
CC(=O)C1=C(O)C(=O)N(CCc2c(C)[nH]c3ccccc23)C1c1cccc(F)c1 (stereo not drawn) | > 66.7 µM (inactive) | > 40.3 µM
O=C(C1=C(O)C(=O)N(CCCn2ccnc2)C1c1cccnc1)c1ccco1 (stereo not drawn) | > 66.7 µM (inactive) | > 40.3 µM
COc1cc(C2C(C(=O)c3cc4ccccc4o3)=C(O)C(=O)N2CCN(C)C)ccc1O (stereo not drawn) | > 66.7 µM (inactive) | > 40.3 µM
O=C1NC(c2ccc(Br)cc2)/C(=C(\O)c2ccc(Cl)cc2)C1=O (stereo not drawn) | > 66.7 µM (inactive) | > 40.3 µM
COc1ccc(C2C(C(=O)c3cc4ccccc4o3)=C(O)C(=O)N2CCN(C)C)cc1OC (stereo not drawn) | > 66.7 µM (inactive) | > 40.3 µM
Cc1ccc(/C(O)=C2\C(=O)C(=O)N(c3nnc(C)s3)C2c2ccc(C(C)C)cc2)cc1 (stereo not drawn) | > 66.7 µM (inactive) | > 40.3 µM
COc1ccc(C2C(C(=O)c3ccco3)=C(O)C(=O)N2CCN2CCOCC2)c(OC)c1 (stereo not drawn) | > 66.7 µM (inactive) | > 40.3 µM
COc1ccc(-c2c(C)[nH]n3c(=O)c4c(nc23)CCCC4)cc1 | – | > 40.3 µM
CCC(C)(C(=O)NC1CCCCC1)N(Cc1cccs1)C(C)=O (stereo not drawn) | – | > 40.3 µM

More lines, now with the values ahead:

IC50 | Ki | SMILES
> 66.7 µM (inactive) | > 40.3 µM | O=C(C1=C(O)C(=O)N(CCCN2CCOCC2)C1c1cccnc1)c1cc2ccccc2o1 (stereo not drawn)
> 66.7 µM (inactive) | > 40.3 µM | COc1ccc(OC)c(C2/C(=C(\O)c3ccccc3)C(=O)C(=O)N2c2ccc(C)c(Cl)c2)c1 (stereo not drawn)
> 66.7 µM (inactive) | > 40.3 µM | N#Cc1c(N/C(=C\C(=O)c2ccccc2)C(=O)O)sc2c1CCC2
> 66.7 µM (inactive) | > 40.3 µM | Cc1ccc(N2C(=O)C(=O)/C(=C(\O)c3ccccc3)C2c2cccc(F)c2)cc1Br (stereo not drawn)
– | > 40.3 µM | Cc1cccc(C)c1NC(=O)C(NC(=O)Cc1cccs1)c1ccccc1 (stereo not drawn)
– | > 40.3 µM | Cc1sc2c(c1C)c(=O)n(Cc1ccccc1)c(=O)n2Cc1ccccc1F
> 66.7 µM (inactive) | > 40.3 µM | CC(C)c1ccc(C2/C(=C(\O)c3ccccc3)C(=O)C(=O)N2Cc2cccnc2)cc1 (stereo not drawn)
> 66.7 µM (inactive) | > 40.3 µM | O=C(C1=C(O)C(=O)N(CCc2ccccc2)C1c1ccc(Cl)cc1)c1cccs1 (stereo not drawn)
– | > 40.3 µM | O=C1CC(c2ccccc2C(F)(F)F)C2=C(CC(c3cccs3)CC2=O)N1 (stereo not drawn)
> 66.7 µM (inactive) | > 40.3 µM | COCCCN1C(=O)C(=O)/C(=C(/O)c2ccccc2)C1c1ccc(O)c(OC)c1 (stereo not drawn)
> 66.7 µM (inactive) | > 40.3 µM | COCCN1C(=O)C(=O)/C(=C(/O)c2ccccc2)C1c1ccc(C(C)C)cc1 (stereo not drawn)
> 66.7 µM (inactive) | > 40.3 µM | O=C1C(=O)N(c2ccc(F)cc2)C(c2ccc(Br)cc2)/C1=C(/O)c1ccccc1 (stereo not drawn)
– | > 40.3 µM | O=C(O)C1CCCCC1C(=O)Nc1ccc(Br)cc1 (stereo not drawn)
> 66.7 µM (inactive) | > 40.3 µM | COCCN1C(=O)C(=O)/C(=C(/O)c2ccccc2)C1c1ccccc1OC (stereo not drawn)
> 66.7 µM (inactive) | > 40.3 µM | COCCN1C(=O)C(=O)/C(=C(/O)c2ccccc2)C1c1cc(OC)ccc1OC (stereo not drawn)
– | > 40.3 µM | COc1ccc(C2C(C(=O)N3CCCC(C)C3)c3ccccc3C(=O)N2C)cc1 (stereo not drawn)
> 66.7 µM (inactive) | > 40.3 µM | COc1ccc(OC)c(C2/C(=C(\O)c3ccccc3)C(=O)C(=O)N2c2cccnc2)c1 (stereo not drawn)
> 66.7 µM (inactive) | > 40.3 µM | COc1ccc(C2/C(=C(\O)c3ccccc3)C(=O)C(=O)N2c2cccc(Cl)c2)c(OC)c1 (stereo not drawn)
> 66.7 µM (inactive) | > 40.3 µM | O=C(O)CCCN1C(=O)C(=O)/C(=C(/O)c2ccccc2)C1/C=C/c1ccccc1 (stereo not drawn)
> 66.7 µM (inactive) | > 40.3 µM | COc1ccc(C2/C(=C(\O)c3ccccc3)C(=O)C(=O)N2CCCn2ccnc2)c(OC)c1 (stereo not drawn)
> 66.7 µM (inactive) | > 40.3 µM | O=C1C(=O)N(CN2CCOCC2)C(c2ccc(Br)cc2)/C1=C(\O)c1ccccc1 (stereo not drawn)
– | > 40.3 µM | COc1ccc(OC)c(CNC(=O)Cn2c(=O)sc3ccccc32)c1
> 66.7 µM (inactive) | > 40.3 µM | CCCCCCN1C(=O)C(=O)/C(=C(\O)c2ccccc2)C1c1ccc(O)c(OC)c1 (stereo not drawn)
> 66.7 µM (inactive) | > 40.3 µM | COCCCN1C(=O)C(=O)/C(=C(/O)c2ccccc2)C1c1ccc(C(C)C)cc1 (stereo not drawn)
